Key:
Assay type in all cases: in vivo
Phakopsora pachyrhizi [1] = experiment: Test Example 5: test of effect on Phakopsora pachyrhizi on soybean, foliar spray; details: soybean (Natto shoryu), inoculated 14 days after spraying, lesion area of first trifoliate
Procedure: (§1) Based on the lesion areas in the treated plot and the non-treated plot, the effect of the treated plot was calculated according to the following formula (I). The results are shown in [Table 1]. Effect(%)=(1−(lesion area in treated plot)/(lesion area in non-treated plot))×100 formula (1)
(§2) Test of Effect on Phakopsora pachyrhizi
(§3) A plastic pot was stuffed with a soil, soybean (variety; Natto shoryu) was sown on this, and allowed to grow in a greenhouse until unfolding of the unifoliate. The present carboxamide compounds (2) and (3) and racemic N-(1,1,3-trimethylindan-4-yl)-1-methyl-3-difluoromethylpyrazole-4-carboxamide (hereinafter, referred to as racemic compound (B)) and racemic N-(1,1,3-trimethylindan-4-yl)-1,3,5-trimethylpyrazole-4-carboxamide (hereinafter, referred to as racemic compound (C)) were prepared into formulations according to Formulation Example 6, then, the formulations were diluted with water to attain a prescribed concentration, and sprayed to foliar part so as to satisfactorily adhere to the leaf surfaces of the soybean. The soybean was further cultivated at room temperature for 14 days, and grown until unfolding of the first trifoliate. The plant was inoculated with an aqueous suspension of Phakopsora pachyrhizi spores by spraying. After inoculation, the plant was allowed to stand under humid condition at 23° C. overnight, further, allowed to stand for 7 days at room temperature, then, the lesion area of the first trifoliate was checked.
Based on the lesion areas in the treated plot and the non-treated plot, the effect of the treated plot was calculated according to the above-described formula (I). The results are shown in [Table 2].

Phakopsora pachyrhizi [2] = experiment: Test Example 4: test of effect on Phakopsora pachyrhizi on soybean, foliar spray; details: 50 ppm; soybean (Natto shoryu); inoculated 14 days after spraying; lesion area of first trifoliate
Procedure: as §2
as §3, with “carboxamide” for “carboxamide compounds (2) and (3) and racemic N-(1,1,3-trimethylindan-4-yl)-1-methyl-3-difluoromethylpyrazole-4-carboxamide (hereinafter, referred to as racemic”, “compound (1) was” for “compound (B)) and racemic N-(1,1,3-trimethylindan-4-yl)-1,3,5-trimethylpyrazole-4-carboxamide (hereinafter, referred to as racemic compound (C)) were”, “cultivated in greenhouse” for “cultivated at room temperature”, “first trifolidate.” for “first trifoliate.”
as §1

[3] = test system: Mycosphaerella graminicola (Septoria tritici); experiment: Test of effect of preventing Mycosphaerella graminicola (Septoria tritici) on wheat, foliar spray; details: 50 ppm foliar spray; wheat (Apogee); inoculated two days after spraying
Procedure: The control effect was evaluated by visually observing the area of a lesion on a test plant in investigation, and comparing the area of a lesion on a plant treated with a test composition and the area of a lesion on a non-treated plant.
Test of Effect of Preventing Mycosphaerella graminicola (Septoria tritici)
A plastic pot was stuffed with a soil, wheat (variety; Apogee) was sown on this, and allowed to grow in a greenhouse for 10 days. […] After spraying, the plant was air-dried, and two days after, inoculated with an aqueous suspension of Septoria tritici spores by spraying. After inoculation, the plant was first allowed to stand under humid condition at 18° C. for 3 days, further, allowed to stand for 14 to 18 days under illumination, then, the lesion area was checked. As a result, the lesion on the plant treated with the present carboxamide compounds (1), (2) and (3) was 10% or less of the lesion area on a non-treated plant.
The same test was carried out excepting the application concentration, using racemic N-(1,1,3-trimethylindan-4-yl)-1-methyl-3-trifluoromethylpyrazole-4-carboxylic amide (hereinafter, referred to as racemic compound (A)) instead of the present carboxamide compound. As a result, the lesion area on the plant treated with 50 ppm of the racemic compound (A) was 75% or more of the lesion area on a non-treated plant.

Row | Compound | Effect [%] (Phakopsora pachyrhizi [1]; 200 ppm) | Effect [%] (Phakopsora pachyrhizi [1]; 100 ppm) | other results
1 | CC1CC(C)(C)c2cccc(NC(=O)c3cn(C)nc3C(F)F)c21 (racemic) [Racemic compound (B), N-(1,1,3-trimethylindan-4-yl)-1-methyl-3-difluoromethylpyrazole-4-carboxamide, reference compound] | 46.7% | – | –
2 | Cc1nn(C)c(C)c1C(=O)Nc1cccc2c1C(C)CC2(C)C (racemic) [Racemic compound (C), N-(1,1,3-trimethylindan-4-yl)-1,3,5-trimethylpyrazole-4-carboxamide, reference compound] | 76.5% | – | –
3 | C[C@@H]1CC(C)(C)c2cccc(NC(=O)c3cn(C)nc3C(F)(F)F)c21 [present carboxamide compound (1), (R)-(−)-N-(1,1,3-trimethylindan-4-yl)-1-methyl-3-trifluoromethylpyrazole-4-carboxamide] | – | – | Effect [%] (Phakopsora pachyrhizi [2]): 98.1%
4 | CC1CC(C)(C)c2cccc(NC(=O)c3cn(C)nc3C(F)(F)F)c21 (racemic) [racemic compound (A), N-(1,1,3-trimethylindan-4-yl)-1-methyl-3-trifluoromethylpyrazole-4-carboxylic amide] | – | – | lesion area on treated plant relative to lesion area on a non-treated plant [3]: ≥ 75%
5 | C[C@@H]1CC(C)(C)c2cccc(NC(=O)c3cn(C)nc3C(F)F)c21 [present carboxamide compound (2), (R)-(−)-N-(1,1,3-trimethylindan-4-yl)-1-methyl-3-difluoromethylpyrazole-4-carboxamide] | 100% | 77.1% | –
6 | Cc1nn(C)c(C)c1C(=O)Nc1cccc2c1[C@H](C)CC2(C)C [present carboxamide compound (3), (R)-(−)-N-(1,1,3-trimethylindan-4-yl)-1,3,5-trimethylpyrazole-4-carboxamide] | 100% | 98.4% | –

Source: patent publication US8580836B2, “Plant disease control composition and method of controlling plant disease” (Sumitomo Chemical Company, Limited, priority 2010, dated 2013)
